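Results reflect a 48-hour exposure of cells in 96-well plates to compound at five concentrations. Abbreviation: GI50, concentration required for 50% inhibition of growth. TGI denotes the concentration required for complete inhibition of growth.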

The source of these data is PubChem BioAssay (NCI).

Some test systems named below: HCT-15 colon; SK-MEL-5 melanoma; A549 NSCLC; RPMI-8226 leukemia; NCI-H460 lung; IGROV1 ovarian; HS 578T breast; SK-OV-3 ovarian.
Test in all cases: NCI anticancer screen, dose series, 48 h

On to `CC1(C)N=C(N)N=C(N)N1c1ccc(OCCCNC(=O)Nc2cccc(S(=O)(=O)F)c2)c(Cl)c1`, for which the GI50 in the experiment with HCT-15 colon was 29.2 µM; in the experiment on SK-MEL-5 melanoma, 0.715 µM; in the experiment with A549 NSCLC it was 1.69 µM; in the experiment on RPMI-8226 leukemia, 41.4 µM; with NCI-H460 lung it was 0.511 µM; in the experiment with IGROV1 ovarian, 0.448 µM. The figures for the GI50 in the experiment on HS 578T breast and in the experiment with SK-OV-3 ovarian were 5.08 µM and 86.2 µM, respectively. Also, the TGI in the experiment with HCT-15 colon, in the experiment on SK-MEL-5 melanoma, with A549 NSCLC, in the experiment on RPMI-8226 leukemia, in the experiment on NCI-H460 lung and in the experiment on IGROV1 ovarian was > 100 µM throughout. The TGI with HS 578T breast and in the experiment with SK-OV-3 ovarian was > 100 µM each time.

With `Clc1cc(Cl)c(OCCCCCCN2CCNCC2)c(Cl)c1`, the GI50 in the experiment with HCT-15 colon was 1.82 µM; with SK-MEL-5 melanoma it was 1.66 µM; in the experiment with A549 NSCLC, 10.6 µM; in the experiment with RPMI-8226 leukemia, 2.11 µM; in the experiment with NCI-H460 lung, 2.03 µM; in the experiment with IGROV1 ovarian, 3.07 µM. Further, the GI50 with HS 578T breast is 3.35 µM; in the experiment on SK-OV-3 ovarian it was 12.9 µM. Also, the TGI with HCT-15 colon turned out to be 4.09 µM; in the experiment on SK-MEL-5 melanoma, 3.06 µM; in the experiment with A549 NSCLC, 25.3 µM; in the experiment on RPMI-8226 leukemia, 4.62 µM; in the experiment on NCI-H460 lung, 4.15 µM; in the experiment with IGROV1 ovarian it was 8.43 µM. For the same compound, the TGI in the experiment with HS 578T breast stood at 15.2 µM; with SK-OV-3 ovarian, 28.6 µM.

For `Cc1ccc(C=C2C(Cl)=C(Cl)C(Cl)=C2Cl)cc1`, the GI50 in the experiment on HCT-15 colon is 1.33 µM; in the experiment with SK-MEL-5 melanoma, 1.09 µM; in the experiment on A549 NSCLC it was 1.7 µM; in the experiment with RPMI-8226 leukemia, 0.224 µM; in the experiment with NCI-H460 lung it was 1.66 µM; in the experiment with IGROV1 ovarian, 0.553 µM. Also, the GI50 is 0.636 µM in the experiment with HS 578T breast and 2.03 µM in the experiment with SK-OV-3 ovarian. Besides, the TGI in the experiment with HCT-15 colon amounted to 4.88 µM; in the experiment with SK-MEL-5 melanoma, 2.41 µM; in the experiment with A549 NSCLC, 3.84 µM; in the experiment with RPMI-8226 leukemia, 0.653 µM; in the experiment with NCI-H460 lung it was 3.88 µM; with IGROV1 ovarian it was 1.64 µM. For the same compound, the figures for the TGI in the experiment with HS 578T breast and with SK-OV-3 ovarian were 7.56 µM and 4.62 µM, respectively.

As to `COc1ccc(NC2=C(I)C(=O)c3ncccc3C2=O)cc1`, the GI50 with HCT-15 colon was 0.516 µM; with SK-MEL-5 melanoma, 0.347 µM; with A549 NSCLC it was 1.84 µM; in the experiment with RPMI-8226 leukemia, 1.17 µM; in the experiment on NCI-H460 lung, 0.647 µM; in the experiment with IGROV1 ovarian, 0.417 µM. In addition, the figures for the GI50 with HS 578T breast and with SK-OV-3 ovarian were 0.834 µM and 1.36 µM, respectively. Moreover, the TGI with HCT-15 colon is 2.42 µM; in the experiment on SK-MEL-5 melanoma, 1.42 µM; in the experiment with A549 NSCLC, 3.91 µM; with RPMI-8226 leukemia, 3.85 µM; with NCI-H460 lung it was 2.24 µM; in the experiment on IGROV1 ovarian, 1.93 µM. For the same compound, the TGI came to 5.04 µM in the experiment with HS 578T breast and 2.72 µM with SK-OV-3 ovarian.

As for `Oc1c(Cl)cc(Cl)cc1/C=N/Nc1nnc(N/N=C/c2cc(Cl)cc(Cl)c2O)c2ccccc12`, the GI50 with HCT-15 colon was 0.334 µM; in the experiment with SK-MEL-5 melanoma it was 0.505 µM; with A549 NSCLC, 0.419 µM; with RPMI-8226 leukemia it was 0.405 µM; with NCI-H460 lung, 0.34 µM; in the experiment on IGROV1 ovarian, 0.419 µM. In addition, the GI50 with HS 578T breast is 1.03 µM; in the experiment on SK-OV-3 ovarian, 0.563 µM. Also, the TGI in the experiment on HCT-15 colon is > 100 µM; with SK-MEL-5 melanoma, 2.2 µM; in the experiment with A549 NSCLC it was > 100 µM; in the experiment with RPMI-8226 leukemia, > 100 µM; in the experiment with NCI-H460 lung it was 2.26 µM; in the experiment with IGROV1 ovarian it was > 100 µM. The TGI was > 100 µM with HS 578T breast and > 81.7 µM with SK-OV-3 ovarian.

As for `CN(C)CC(=O)Nc1ccc2ncnc(Nc3ccc(Oc4cccc(C(F)(F)F)c4)c(Cl)c3)c2c1`, the GI50 was 1.48 µM with HCT-15 colon; 1.69 µM with SK-MEL-5 melanoma; 2.82 µM in the experiment with A549 NSCLC; 1.9 µM with RPMI-8226 leukemia; 1.76 µM in the experiment on NCI-H460 lung; 1.17 µM with IGROV1 ovarian. Also, in the experiment on HS 578T breast, the GI50 was 1.78 µM. The TGI with HCT-15 colon stood at 3.1 µM; in the experiment with SK-MEL-5 melanoma, 3.09 µM; in the experiment with A549 NSCLC, 10.2 µM; in the experiment on RPMI-8226 leukemia, 5.51 µM; in the experiment on NCI-H460 lung it was 3.45 µM; with IGROV1 ovarian, 3.03 µM. The TGI with HS 578T breast worked out at 4.58 µM.

`COc1cc(CNCCN2C(=O)c3ccc4c5c(ccc(c35)C2=O)C(=O)N(CCNCc2cc(OC)c(OC)c(OC)c2)C4=O)cc(OC)c1OC`: in the experiment on IGROV1 ovarian, the GI50 is 0.296 µM and the TGI was found to be 1.89 µM. Also, in the experiment with SK-OV-3 ovarian, the GI50 is 0.575 µM and the TGI was 1.19 µM.

Consider `O=C(C=P(c1ccccc1)(c1ccccc1)c1ccccc1)CCl`, for which the GI50 with HCT-15 colon was 0.881 µM; with SK-MEL-5 melanoma it was 1.45 µM; in the experiment with A549 NSCLC, 2.16 µM; with RPMI-8226 leukemia, 0.965 µM; with NCI-H460 lung it was 1.52 µM; in the experiment on IGROV1 ovarian, 1.97 µM. In addition, the GI50 with HS 578T breast is 1.53 µM; in the experiment with SK-OV-3 ovarian, 4.67 µM. For the same compound, the TGI with HCT-15 colon amounted to 4.21 µM; in the experiment with SK-MEL-5 melanoma, 2.83 µM; in the experiment with A549 NSCLC, 8.14 µM; with RPMI-8226 leukemia it was 4.45 µM; in the experiment on NCI-H460 lung, 3.6 µM; in the experiment with IGROV1 ovarian it was 5.75 µM. Moreover, the TGI with HS 578T breast is 11 µM; in the experiment with SK-OV-3 ovarian, 16.1 µM.

In the case of `N#CC1=C(N)NC(=S)NC12Nc1ccccc1S2` (stereo not drawn), the GI50 with HCT-15 colon was 28.9 µM; in the experiment with SK-MEL-5 melanoma, 19.6 µM; in the experiment with A549 NSCLC it was 37.7 µM; in the experiment with RPMI-8226 leukemia it was 22.2 µM; with NCI-H460 lung, 17 µM; in the experiment with IGROV1 ovarian, 23.3 µM. Also, in the experiment on SK-OV-3 ovarian, the GI50 was 37.1 µM. For the same compound, the TGI was > 100 µM in the experiment with HCT-15 colon; 54.9 µM in the experiment on SK-MEL-5 melanoma; > 100 µM in the experiment on A549 NSCLC; > 100 µM in the experiment with RPMI-8226 leukemia; 45.8 µM with NCI-H460 lung; > 100 µM in the experiment with IGROV1 ovarian. In addition, in the experiment with SK-OV-3 ovarian, the TGI is > 100 µM.

`COc1cc(-c2nc3sc(C)cn3c2/C=C2\C(=O)Nc3ccccc32)c(Br)c(OC)c1OC`: the GI50 was 29.1 µM with HCT-15 colon; 19.5 µM with SK-MEL-5 melanoma; 44 µM in the experiment with A549 NSCLC; 30.5 µM in the experiment on NCI-H460 lung; 23.4 µM in the experiment on IGROV1 ovarian; 31.5 µM in the experiment with HS 578T breast. In the experiment on SK-OV-3 ovarian, the GI50 is 28.9 µM. Moreover, the TGI in the experiment on HCT-15 colon is > 100 µM; with SK-MEL-5 melanoma, 43.2 µM; in the experiment with A549 NSCLC, > 100 µM; with NCI-H460 lung, 94.8 µM; in the experiment on IGROV1 ovarian, > 100 µM; in the experiment on HS 578T breast, 74.6 µM. Further, in the experiment on SK-OV-3 ovarian, the TGI was 73.8 µM.

With `O=C1C=CC(=C(c2ccccc2)c2ccc(O)cc2)C=C1`, the TGI was 35.3 µM in the experiment with HCT-15 colon; 26.4 µM in the experiment on SK-MEL-5 melanoma; 36.8 µM with A549 NSCLC; > 100 µM with RPMI-8226 leukemia; 41.7 µM with NCI-H460 lung; 22.5 µM with IGROV1 ovarian. This compound also displayed a TGI in the experiment with HS 578T breast of 47.7 µM.

As to `O=C1C(=C([O-])c2ccccc2)C(=O)c2ccccc21.O=C1C(=C([O-])c2ccccc2)C(=O)c2ccccc21.[Mn+2]`, the GI50 is 55.4 µM in the experiment on HCT-15 colon; 16.1 µM in the experiment on SK-MEL-5 melanoma; > 100 µM in the experiment with A549 NSCLC; > 100 µM in the experiment with RPMI-8226 leukemia; > 100 µM in the experiment with IGROV1 ovarian. Besides, the TGI in the experiment on HCT-15 colon, in the experiment on SK-MEL-5 melanoma, in the experiment on A549 NSCLC, in the experiment on RPMI-8226 leukemia and with IGROV1 ovarian was > 100 µM throughout.

`O=C(NCCCl)Nc1cccnc1`: the TGI was 66.7 µM in the experiment with HCT-15 colon; > 100 µM in the experiment with SK-MEL-5 melanoma; 99.5 µM in the experiment with A549 NSCLC; 86.6 µM with RPMI-8226 leukemia; 35.6 µM in the experiment on IGROV1 ovarian; 43.5 µM in the experiment on SK-OV-3 ovarian.

In the case of `O=C(COc1cccc(/C=C2\CSc3ccc(Cl)cc3C2=O)c1)c1ccc(Cl)cc1`, the GI50 in the experiment with HCT-15 colon was 1.8 µM; in the experiment on SK-MEL-5 melanoma it was 5.33 µM; in the experiment with A549 NSCLC it was 77.6 µM; in the experiment with NCI-H460 lung, 23.1 µM; with IGROV1 ovarian it was 3.29 µM; with HS 578T breast, 2.46 µM. Besides, the GI50 in the experiment with SK-OV-3 ovarian is 20.4 µM. Moreover, the TGI was 3.9 µM with HCT-15 colon; 19.6 µM in the experiment on SK-MEL-5 melanoma; > 100 µM with A549 NSCLC; > 100 µM with NCI-H460 lung; 20.2 µM with IGROV1 ovarian; 6.91 µM in the experiment with HS 578T breast. The same compound showed a TGI with SK-OV-3 ovarian of 97.5 µM.

With `O=C(O)c1ccc(C(O)(c2ccccc2)c2ccccc2)cc1`, the TGI in the experiment with HCT-15 colon, in the experiment with SK-MEL-5 melanoma, with A549 NSCLC, in the experiment on RPMI-8226 leukemia, with IGROV1 ovarian and in the experiment with HS 578T breast was > 100 µM throughout. Also, the TGI in the experiment on SK-OV-3 ovarian was > 100 µM.

Turning to `Cc1cc(N2CCCCC2)nc(NC2CCCC(Nc3ccnc4cc(Cl)ccc34)C2)n1` (stereo not drawn), the GI50 is 0.825 µM with HCT-15 colon; 1.64 µM in the experiment on SK-MEL-5 melanoma; 0.472 µM in the experiment on RPMI-8226 leukemia; 1.39 µM with NCI-H460 lung; 1.55 µM in the experiment on HS 578T breast; 1.65 µM in the experiment on SK-OV-3 ovarian. In addition, the TGI with HCT-15 colon was determined as 2.17 µM; in the experiment with SK-MEL-5 melanoma it was 3 µM; in the experiment with RPMI-8226 leukemia it was 2.56 µM; in the experiment with NCI-H460 lung it was 2.86 µM; with HS 578T breast, 3.95 µM; in the experiment with SK-OV-3 ovarian, 3.17 µM.
